Experimental data as given in patent US20090074815A1, “Immunomodulator Compounds as Vaccine Enhancers” (SCICLONE PHARMACEUTICALS, INC., priority 2005, published 2009).
Like-named read-outs stand apart in the source and are kept apart here.

Tests used:
[1] = system: IL-12R40 production by OvA-stimulated splenocytes; assay: OvA-stimulated production of IL-12R40 by splenocytes of OvA-immunized mice; conditions: for activity at 0.0001 mg/kg / activity at 0.001 mg/kg / activity at 0.01 mg/kg: Mus musculus, Splenocyte, po, read-out: Production of IL-12R40 by splenocytes, % (% of control), OvA/FA; for Production of IL-12R40 by splenocytes / Production of IL-12R40 by splenocytes, % (% of control): OvA/FA
Method: The OvA was administered subcutaneously to the crest in a volume of 200 μl. Mice were immunized on day 1 with OvA in complete Freund's adjuvant (CFA; Sigma) and on day 15 with the antigen in incomplete Freund's adjuvant (IFA; Sigma). The immune response was analyzed on day 29. Mice were also immunized with 10 μg/mouse of OvA using Alum as an adjuvant.
Thymuses and spleens from mice of each treatment group were pooled, and then minced with scissors. The minced tissues were suspended in sterile PBS to form cell suspensions, filtered through a double gauze layer and centrifuged. Cells were washed twice with PBS, re-suspended in RPMI-1640 (Sigma) with 2.0 mM of L-glutamine, 50 μM of mercaptoethanol, and 10 μg/ml of gentamycin (complete medium); and cell counts were made. (The splenocyte suspension was washed with a 0.86% solution of NH4Cl to pre-lyse erthrocytes.)
Assessment of Mitogen- and Antigen-Induced Production of Cytokines: Thymic cells (1×10^6/well) in complete medium with 2% FCS were stimulated with ConA (0, 1, and 2 μg/ml). Splenocytes (1×10^6/well) in complete medium with 5% FCS were stimulated with ConA (0, 1, and 5 μg/ml) and with OvA (0-100 μg/ml). […] Supernatants from OvA-stimulated cultures were collected after 72 hours. Supernatants from both cultures were frozen, and kept at 20° C. Concentrations of IL-2, IL-4, IL-10, IL-12R40 and IFNγ in the supernatants were determined by solid-phase EIA with EIA Expansion Kits, available from BD Biosciences (formerly Pharmingen), in accordance with the manufacturer's instructions.

neutrophils = assay: Concentration and functional activity of neutrophils (phagocytosis, lysosomal activity, spontaneous and induced HCT test) before and after vaccination; format: in vivo, human
[2] = system: IFN-γ production by OvA-stimulated splenocytes; assay: OvA-stimulated production of IFN-γ by splenocytes of OvA-immunized mice; format: in vivo; conditions: Mus musculus, Splenocyte, po, OvA/Alum, 0.1 μg/kg per os, read-out: Production of IFN-γ by splenocytes, % (% of control)
[3] = 0.1 μg/kg per os, OvA 100 μg/ml
[4] = 1.0 μg/kg per os, OvA 100 μg/ml
[5] = 10.0 μg/kg per os, OvA 10 μg/ml
[6] = 10.0 μg/kg per os, OvA 25 μg/ml
[7] = 10.0 μg/kg per os, OvA 50 μg/ml
[8] = 10.0 μg/kg per os, OvA 100 μg/ml
[9] = Group 2 (patients with infectious syndrome, hepatitis B vaccination with SCV-07), after vaccination, n = 16, M ± m

## N[C@H](CCC(=O)N[C@@H](Cc1c[nH]c2ccccc12)C(=O)O)C(=O)O [SCV-07, γ-D-glutamyl-L-tryptophan]
[1]; 0.1 μg/kg per os, OvA 0 μg/ml
  activity at 0.0001 mg/kg: 100%
  Production of IL-12R40 by splenocytes: 1307.6 pg/mL
[1]; 0.1 μg/kg per os, OvA 10 μg/ml
  activity at 0.0001 mg/kg: 36.6%
  Production of IL-12R40 by splenocytes: 478.1 pg/mL
[1]; 0.1 μg/kg per os, OvA 25 μg/ml
  activity at 0.0001 mg/kg: 24.3%
  Production of IL-12R40 by splenocytes: 317.4 pg/mL
[1]; 0.1 μg/kg per os, OvA 50 μg/ml
  activity at 0.0001 mg/kg: 20.4%
  Production of IL-12R40 by splenocytes: 267.0 pg/mL
[1]; [3]
  activity at 0.0001 mg/kg: 18.9%
  Production of IL-12R40 by splenocytes: 246.5 pg/mL
[1]; 1.0 μg/kg per os, OvA 0 μg/ml
  activity at 0.001 mg/kg: 100%
  Production of IL-12R40 by splenocytes: 1362.3 pg/mL
[1]; 1.0 μg/kg per os, OvA 10 μg/ml
  activity at 0.001 mg/kg: 26.9%
  Production of IL-12R40 by splenocytes: 366.3 pg/mL
[1]; 1.0 μg/kg per os, OvA 25 μg/ml
  activity at 0.001 mg/kg: 23.8%
  Production of IL-12R40 by splenocytes: 324.5 pg/mL
[1]; 1.0 μg/kg per os, OvA 50 μg/ml
  activity at 0.001 mg/kg: 26.5%
  Production of IL-12R40 by splenocytes: 360.8 pg/mL
[1]; [4]
  activity at 0.001 mg/kg: 25.1%
  Production of IL-12R40 by splenocytes: 342.4 pg/mL
[1]; 10.0 μg/kg per os, OvA 0 μg/ml
  activity at 0.01 mg/kg: 100%
  Production of IL-12R40 by splenocytes: 1455.1 pg/mL
[1]; [5]
  activity at 0.01 mg/kg: 52.9%
  Production of IL-12R40 by splenocytes: 769.3 pg/mL
[1]; [6]
  activity at 0.01 mg/kg: 40.7%
  Production of IL-12R40 by splenocytes: 592 pg/mL
[1]; [7]
  activity at 0.01 mg/kg: 32.4%
  Production of IL-12R40 by splenocytes: 471.9 pg/mL
[1]; [8]
  activity at 0.01 mg/kg: 31.9%
  Production of IL-12R40 by splenocytes: 464.8 pg/mL
[1]; OvA/Alum, per os or i/p, data not shown
  OvA-induced production of IL-12r40 by splenocytes versus control: No significant differences
[1]; 0.1 μg/kg i/p, OvA 0 μg/ml
  Production of IL-12R40 by splenocytes: 1285.7 pg/mL
[1]; 0.1 μg/kg i/p, OvA 10 μg/ml
  Production of IL-12R40 by splenocytes: 492.4 pg/mL
  Production of IL-12R40 by splenocytes, % (% of control): 38.3%
[1]; 0.1 μg/kg i/p, OvA 25 μg/ml
  Production of IL-12R40 by splenocytes: 499.6 pg/mL
  Production of IL-12R40 by splenocytes, % (% of control): 38.9%
[1]; 0.1 μg/kg i/p, OvA 50 μg/ml
  Production of IL-12R40 by splenocytes: 420.8 pg/mL
  Production of IL-12R40 by splenocytes, % (% of control): 32.7%
[1]; 0.1 μg/kg i/p, OvA 100 μg/ml
  Production of IL-12R40 by splenocytes: 522.8 pg/mL
[1]; 1.0 μg/kg i/p, OvA 0 μg/ml
  Production of IL-12R40 by splenocytes: 1524.0 pg/mL
[1]; 1.0 μg/kg i/p, OvA 10 μg/ml
  Production of IL-12R40 by splenocytes: 933.8 pg/mL
  Production of IL-12R40 by splenocytes, % (% of control): 61.3%
[1]; 1.0 μg/kg i/p, OvA 25 μg/ml
  Production of IL-12R40 by splenocytes: 739.7 pg/mL
  Production of IL-12R40 by splenocytes, % (% of control): 48.5%
[1]; 1.0 μg/kg i/p, OvA 50 μg/ml
  Production of IL-12R40 by splenocytes: 630.3 pg/mL
  Production of IL-12R40 by splenocytes, % (% of control): 41.4%
[1]; 1.0 μg/kg i/p, OvA 100 μg/ml
  Production of IL-12R40 by splenocytes: 616.4 pg/mL
  Production of IL-12R40 by splenocytes, % (% of control): 40.4%
neutrophils; [9]
  Activity of phagocytosis %: 46.88 ± 4.92%
  Functional reserve, conv. units: 1.929 ± 0.225 conv. units
  Induced HCT-test, activity, %: 48.63 ± 4.62%
  Induced HCT-test, index, conv. units: 0.732 ± 0.08 conv. units
  Intensity of phagocytosis, conv. units: 1.44 ± 0.189 conv. units
  Lysosomal activity, conv. units: 198.7 ± 22.5 conv. units
  Neutrophils %: 56.56 ± 2.07%
  Neutrophils × 10^9/l: 3.403 ± 0.27 × 10^9/l
  Phagocytary number, conv. units: 2.92 ± 0.255 conv. units
  Spontaneous HCT-test, activity, %: 34.50 ± 5.62%
  Spontaneous HCT-test, index, conv.: 0.50 ± 0.093 conv.
neutrophils; immunodeficient subjects with SCV-07 versus vaccine only and versus healthy, p<0.05
  spontaneous activity and intensity of neutrophils in the HCT reaction: significantly lower
neutrophils; subjects who received SCV-07 versus vaccinated without immunomodulator, after vaccination, p<0.05
  activities of neutrophils in the induced HCT test: significantly higher
[2]; OvA 0 μg/ml
  activity at 0.0001 mg/kg: 100%
[2]; OvA 10 μg/ml
  activity at 0.0001 mg/kg: 124%
[2]; OvA 25 μg/ml
  activity at 0.0001 mg/kg: 150%
[2]; OvA 50 μg/ml
  activity at 0.0001 mg/kg: 150%
